The target in assay [1] is T1, Transcriptional enhancer factor TEF-1 (Homo sapiens, UniProt P28347). The assay can be described thus: Displacement of FAM- labeled YAP1 peptide (60 to 99 residues) from human TEAD1 (209 to 426 residues) expressed in Escherichia coli BL21 (DE3) cells incubated for 24 hrs by fluorescence polarization-based competitive binding assay. For orientation: In fluorescence polarisation assays a small probe gives low polarisation when free and higher when bound to something large.

Assay [2] addresses T2, Transcriptional enhancer factor TEF-4 (Homo sapiens, UniProt Q15562). The assay can be described thus: Displacement of FAM- labeled YAP1 peptide (60 to 99 residues) from human TEAD2 (217 to 447 residues) expressed in Escherichia coli BL21 (DE3) cells incubated for 24 hrs by fluorescence polarization-based competitive binding assay.
The target in assay [3] is T3, Transcriptional enhancer factor TEF-5 (Homo sapiens, UniProt Q99594). Nature of the assay: Displacement of FAM- labeled YAP1 peptide (60 to 99 residues) from human TEAD3 (210 to 427 residues) expressed in Escherichia coli BL21 (DE3) cells incubated for 24 hrs by fluorescence polarization-based competitive binding assay.
Assay [4] deals with T4, Transcriptional enhancer factor TEF-3 (Homo sapiens, UniProt Q15561). Nature of the assay: Displacement of FAM- labeled YAP1 peptide (60 to 99 residues) from human TEAD4 (217 to 434 residues) expressed in Escherichia coli BL21 (DE3) cells incubated for 24 hrs by fluorescence polarization-based competitive binding assay.
In assay [5] the target is T2, Transcriptional enhancer factor TEF-4. The assay can be described thus: Displacement of FAM- labeled YAP1 peptide (60 to 99 residues) from human TEAD2 (217 to 447 residues) expressed in Escherichia coli BL21 (DE3) cells assessed as maximum inhibition at 0.2 to 100 uM incubated for 24 hrs by fluorescence polarization-based competitive binding assay relative to control. The note with it: dose 0.2-100 µM.

Assay [6] is described as follows: Inhibition of TEAD in human MDA-MB-468 cells assessed as inhibition of CTGF transcriptional level incubated for 24 hrs by qRT-PCR assay. Format: cell-based. On the technique in general: Real-time PCR tracks product formation cycle by cycle.
Another assay relates to MDA-MB-468. Nature of the assay: Inhibition of TEAD in human MDA-MB-468 cells assessed as maximal inhibition of CTGF transcriptional level at 0.01 to 100 uM incubated for 24 hrs by qRT-PCR assay relative to control. Format: cell-based. The note with it: dose 0.01-100 µM.
Assay [7] has as its target T4, Transcriptional enhancer factor TEF-3. The assay can be described thus: Inhibition of TEAD4 (unknown origin) transfected in human HEK293 cells co-transfected with renilla plasmid assessed as inhibition of transcriptional activity incubated for 24 hrs by dual Glo-luciferase reporter assay. In kind it is cell-based. (A reporter such as luciferase makes a cellular process visible.)

In assay [8] the test system is Transcriptional enhancer factor TEF-3 (Homo sapiens), Q15561 [C367S]. The assay can be described thus: Displacement of FAM- labeled YAP1 peptide (60 to 99 residues) from human TEAD4 (217 to 434 residues) C367S mutant expressed in Escherichia coli BL21 (DE3) cells at 0.2 to 100 uM incubated for 24 hrs by fluorescence polarization-based competitive binding assay. The conditions noted are these: dose 0.2-100 µM.

For assay [9], the target named is T4, Transcriptional enhancer factor TEF-3. Nature of the assay: Inhibition of TEAD4 (unknown origin) transfected in human HEK293 cells co-transfected with renilla plasmid assessed as maximum inhibition of transcriptional activity at 0.01 to 100 uM incubated for 24 hrs by dual Glo-luciferase reporter assay relative to control. The note with it: dose 0.01-100 µM. Format: cell-based.

Assay [10] addresses T1, Transcriptional enhancer factor TEF-1. Nature of the assay: Inhibition of TEAD1 (unknown origin) transfected in human HEK293 cells co-transfected with renilla plasmid assessed as maximum inhibition of transcriptional activity at 10 uM incubated for 24 hrs by dual Glo-luciferase reporter assay relative to control. Format: cell-based.
The target of assay [11] is T2, Transcriptional enhancer factor TEF-4. Nature of the assay: Inhibition of TEAD2 (unknown origin) transfected in human HEK293 cells co-transfected with renilla plasmid assessed as maximum inhibition of transcriptional activity at 10 uM incubated for 24 hrs by dual Glo-luciferase reporter assay relative to control. Format: cell-based.
Assay [12] concerns the target T1, Transcriptional enhancer factor TEF-1. Nature of the assay: Inhibition of TEAD1 (unknown origin) transfected in human HEK293 cells co-transfected with renilla plasmid assessed as inhibition of transcriptional activity incubated for 24 hrs by dual Glo-luciferase reporter assay. Format: cell-based.
In assay [13] the target is T2, Transcriptional enhancer factor TEF-4. The assay can be described thus: Inhibition of TEAD2 (unknown origin) transfected in human HEK293 cells co-transfected with renilla plasmid assessed as inhibition of transcriptional activity incubated for 24 hrs by dual Glo-luciferase reporter assay. Format: cell-based.
For assay [14], the target named is T3, Transcriptional enhancer factor TEF-5. The assay can be described thus: Inhibition of TEAD3 (unknown origin) transfected in human HEK293 cells co-transfected with renilla plasmid assessed as inhibition of transcriptional activity incubated for 24 hrs by dual Glo-luciferase reporter assay. In kind it is cell-based.
Assay [15] addresses YAP1-TEAD4 (Homo sapiens) (UniProt P46937+Q15561). Nature of the assay: Inhibition of NanoLuc-tagged TEAD4 (unknown origin)-Halo-Tagged YAP1 (unknown origin) protein-protein interaction transfected in HEK293 cells using furimazine as substrate at 10 uM incubated for 2 to 24 hrs by NanoBRET binding assay. In kind it is cell-based. The conditions noted are these: time 2-24 hrs.

The target of assay [16] is T1, Transcriptional enhancer factor TEF-1. The assay can be described thus: Inhibition of TEAD1 (unknown origin) transfected in human HEK293 cells co-transfected with renilla plasmid assessed as maximum inhibition of transcriptional activity at 0.1 to 10 uM incubated for 24 hrs by dual Glo-luciferase reporter assay relative to control. Format: cell-based. The note with it: dose 0.1-10 µM.

Assay [17] deals with T2, Transcriptional enhancer factor TEF-4. The assay can be described thus: Inhibition of TEAD2 (unknown origin) transfected in human HEK293 cells co-transfected with renilla plasmid assessed as maximum inhibition of transcriptional activity at 0.1 to 10 uM incubated for 24 hrs by dual Glo-luciferase reporter assay relative to control. Format: cell-based. The note with it: dose 0.1-10 µM.

Assay [18] addresses T4, Transcriptional enhancer factor TEF-3. Nature of the assay: Inhibition of TEAD4 (unknown origin) transfected in human HEK293 cells co-transfected with renilla plasmid assessed as maximum inhibition of transcriptional activity at 0.1 to 10 uM incubated for 24 hrs by dual Glo-luciferase reporter assay relative to control. Format: cell-based. The conditions noted are these: dose 0.1-10 µM.

Where [19] appears, read: Homo sapiens, MDA-MB-468, 24 h, read-out: IC50.

Activity calls are given as the source filed them. The rule behind the calls is not given here.

T4 sequence (Q15561 whole entry, the tested form may be a part): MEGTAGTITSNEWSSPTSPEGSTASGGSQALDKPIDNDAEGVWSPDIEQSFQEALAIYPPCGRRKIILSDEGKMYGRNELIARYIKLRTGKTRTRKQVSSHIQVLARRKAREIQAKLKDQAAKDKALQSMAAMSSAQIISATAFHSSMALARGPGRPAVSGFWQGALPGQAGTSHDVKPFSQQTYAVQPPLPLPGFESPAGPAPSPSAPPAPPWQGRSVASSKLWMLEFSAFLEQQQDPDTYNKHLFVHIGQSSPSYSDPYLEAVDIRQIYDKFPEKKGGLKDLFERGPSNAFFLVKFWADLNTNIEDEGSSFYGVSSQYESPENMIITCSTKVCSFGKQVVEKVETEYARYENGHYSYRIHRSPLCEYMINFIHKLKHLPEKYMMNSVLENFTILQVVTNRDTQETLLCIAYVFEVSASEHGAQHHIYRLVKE
Transcriptional enhancer factor TEF-3 (Homo sapiens), Q15561 [C367S], sequence (Q15561 whole entry C367S, the tested form may be a part): as the sequence (Q15561 whole entry, the tested form may be a part) above, with C367S counted along it
T3 sequence (Q99594 whole entry, the tested form may be a part): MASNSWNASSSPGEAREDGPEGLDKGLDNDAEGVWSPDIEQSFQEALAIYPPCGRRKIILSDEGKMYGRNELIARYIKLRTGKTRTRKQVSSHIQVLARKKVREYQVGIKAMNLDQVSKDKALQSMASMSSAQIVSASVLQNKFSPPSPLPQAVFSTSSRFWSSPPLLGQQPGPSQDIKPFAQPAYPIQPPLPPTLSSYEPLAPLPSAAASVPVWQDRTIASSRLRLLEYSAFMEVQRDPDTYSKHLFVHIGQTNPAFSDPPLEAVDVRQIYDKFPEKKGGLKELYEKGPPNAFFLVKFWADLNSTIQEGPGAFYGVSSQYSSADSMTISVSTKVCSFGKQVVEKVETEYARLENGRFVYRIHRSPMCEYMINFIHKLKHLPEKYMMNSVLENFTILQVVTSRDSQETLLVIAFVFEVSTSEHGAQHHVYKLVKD
T2 sequence (Q15562 whole entry, the tested form may be a part): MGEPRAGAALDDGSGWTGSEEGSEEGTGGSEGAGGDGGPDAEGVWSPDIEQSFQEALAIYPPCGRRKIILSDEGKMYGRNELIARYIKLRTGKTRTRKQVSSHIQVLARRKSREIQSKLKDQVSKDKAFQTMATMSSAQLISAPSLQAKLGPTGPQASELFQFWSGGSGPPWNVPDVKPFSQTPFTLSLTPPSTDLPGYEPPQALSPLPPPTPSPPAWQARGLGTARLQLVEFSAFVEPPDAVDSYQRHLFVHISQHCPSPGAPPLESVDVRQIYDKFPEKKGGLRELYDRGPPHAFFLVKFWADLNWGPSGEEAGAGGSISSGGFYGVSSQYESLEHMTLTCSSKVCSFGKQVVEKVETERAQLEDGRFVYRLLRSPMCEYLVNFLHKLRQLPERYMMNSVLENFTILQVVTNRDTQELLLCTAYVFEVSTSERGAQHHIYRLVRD
T1 sequence (P28347 whole entry, the tested form may be a part): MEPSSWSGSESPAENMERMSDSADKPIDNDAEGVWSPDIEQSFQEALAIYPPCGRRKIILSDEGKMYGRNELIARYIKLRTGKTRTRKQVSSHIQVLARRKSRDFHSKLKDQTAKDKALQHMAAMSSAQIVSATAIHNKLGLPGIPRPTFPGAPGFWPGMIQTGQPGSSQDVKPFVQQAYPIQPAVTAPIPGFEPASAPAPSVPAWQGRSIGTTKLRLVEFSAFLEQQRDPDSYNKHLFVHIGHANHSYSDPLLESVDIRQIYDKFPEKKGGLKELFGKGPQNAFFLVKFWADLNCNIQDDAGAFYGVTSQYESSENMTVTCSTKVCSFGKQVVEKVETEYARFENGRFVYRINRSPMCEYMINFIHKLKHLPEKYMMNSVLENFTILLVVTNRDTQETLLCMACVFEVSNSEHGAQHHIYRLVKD

Consider `N#CN1CC2CCCC(Nc3ccc(C(F)(F)F)cc3)C2C1` (stereo not given), for which the concentration for half-maximal inhibition (IC50) in [1] (read-out: IC50) is 1500 nM; in [2] it was 16100 nM; in assay [3], “Not Active”; in assay [4] (read-out: IC50) it was 20100 nM; in assay [6] (mda-mb-468), “Not Active”; in assay [7] (hek293), “Not Active”. Further, in [5], the Imax was 39%. Besides, the Imax entry in the assay with MDA-MB-468 is “inactive”.
With `COc1ccc2c(c1Nc1cccc(C(F)(F)F)c1)CN(C#N)C2`, the IC50 in [1] (read-out: IC50) is 300 nM; in assay [2], 1700 nM; in assay [3] it was “Not Active”; in assay [4] (read-out: IC50), 200 nM; in assay [6] (setting [19]) it was 300 nM; in assay [7] (read-out: IC50), 300 nM. Also, the Imax amounted to 42% in assay [5], 45.3% in the assay with MDA-MB-468 and 41.3% in [9]. Besides, the inhibition result in assay [8] and in assay [10] was “inactive” in each case. The inhibition in assay [11] turned out to be 50%.
As to `N#CN1CC2CCCC(Nc3ccccc3C(F)(F)F)C2C1` (stereo not given), the half-inhibitory concentration (IC50) result was “Not Active” in assay [1]; 7500 nM in [2]; “Not Active” in assay [3]; “Not Active” in assay [4]; 2200 nM in [6] (setting [19]); “Not Active” in assay [7] (hek293). The Imax in [5] came to 20%; with MDA-MB-468, 41.1%.
For `N#CN1Cc2cccc(Nc3ccc(C(F)(F)F)cc3)c2C1`, the IC50 in assay [1] (read-out: IC50) is 200 nM; in [2] it was 800 nM; in assay [3], “Not Active”; in assay [4] it was “Not Active”; in assay [6] (setting [19]) it was 1500 nM; in assay [7] (read-out: IC50) it was 2100 nM. For the same molecule, the figures for the Imax (in assay [5]; in the assay on MDA-MB-468) were 33% and 59.6%, respectively.
Regarding `N#CN1Cc2ccc(F)c(Nc3cccc(C(F)(F)F)c3)c2C1`, the IC50 in [1] (read-out: IC50) was 200 nM; in assay [2], 2400 nM; in assay [3] it was “Not Active”; in assay [4] (read-out: IC50), 600 nM; in assay [6] (setting [19]) it was 300 nM; in assay [7] (read-out: IC50), 700 nM. Besides, the Imax in [5] came out at 37%; in the assay with MDA-MB-468, 50.3%; in assay [9], 35.6%. For the same molecule, the inhibition entry in assay [8] is “inactive”. For the same molecule, the inhibition entry in [10] and in assay [11] was “Active” throughout.
For the molecule `N#CN1Cc2cccc(Nc3ccccc3C(F)(F)F)c2C1`, the 50% inhibitory concentration (IC50) in assay [1] (read-out: IC50) is 1300 nM; in [2], 2100 nM; in [3], “Not Active”; in [4] (read-out: IC50), 5400 nM; in assay [6] (setting [19]), 5500 nM; in assay [7] (read-out: IC50), 10500 nM. For the same molecule, the Imax in [5] was 40%; with MDA-MB-468 it was 36.7%; in [9], 98.7%. The inhibition entry in assay [8] was “inactive”.
On to `N#CN1CC2CCCC(Nc3cccc(C(F)(F)F)c3)C2C1` (stereo not given), for which the IC50 in assay [1] (read-out: IC50) was 1600 nM; in [2] it was 27600 nM; in [3], “Not Active”; in [4] (read-out: IC50), 51700 nM; in [6] (setting [19]), 1100 nM; in assay [7] (read-out: IC50), 400 nM. For the same molecule, the values for the IC50 in assay [12], in assay [13] and in [14] were 1600 nM, 2200 nM and 1200 nM, respectively. Further, the Imax turned out to be 45% in assay [5]; 28.6% with MDA-MB-468; 87.3% in assay [9]; 40% in assay [16]; 28.2% in assay [17]; 41.3% in [18]. For the same molecule, the inhibition result in assay [8] and in assay [15] was “inactive” in each case.

The term IC50 denotes the midpoint of a concentration-inhibition curve. One may read the inhibition as the change of the read-out against control, counted positive when it falls.

For the origin of these results see ChEMBL document CHEMBL5316282, “Small-Molecule Cyanamide Pan-TEAD·YAP1 Covalent Antagonists” (J Med Chem, 2023).
